Reference: PubChem BioAssay AID467 (The Scripps Research Institute Molecular Screening Center, 2006)
Active and inactive are the calls of the source. The rule behind the calls is not given here.

What follows are compounds tested on parental cell line counter screen, S1P1 agonist assay readout (assay: signal in parental cells, counter-screen for S1P1 agonist project (AID 467);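 note: agonist potency measured against forskolin stimulation plus an EC20 level of SEW2871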).

Structure (SMILES)	EC50
Cc1oc2cc(O)cc(O)c2c(=O)c1-c1ccc2c(c1)OCCCO2	> 30 µM (inactive)
O=C(Nc1ccc(C(F)(F)F)cc1)C1CCCN1S(=O)(=O)c1cccc2cccnc12 (stereo not given)	> 30 µM (inactive)
O=C(CSc1ncnc2c1oc1ccccc12)N1CCCc2ccccc21	> 10 µM (inactive)
CCN(CC)C(=O)Oc1ccc2c(=O)c(-c3ccc(OC)cc3)coc2c1	> 95.1 µM (inactive)
CCCCn1nnnc1SCC(=O)c1ccc(C)c(C)c1	> 95.1 µM (inactive)
CCOC(=O)c1oc2ccc(S(=O)(=O)n3nc(-c4ccc(OC)cc4)cc3N)cc2c1C	> 95.1 µM (inactive)
COc1ccc(-c2nc(-c3cccc(C)c3)no2)cc1OC	> 95.1 µM (inactive)
O=C(CCC(=O)N(Cc1ccco1)C(C(=O)NC1CCCC1)c1ccncc1)Nc1cccnc1 (stereo not given)	> 95.1 µM (inactive)
O=S(=O)(NCc1cn2ccsc2n1)c1ccc(Oc2ccccc2)cc1	45.3 µM (inactive)
COCC(=O)Nc1cccc(C(F)(F)F)c1	> 95.1 µM (inactive)
Cn1nc(CC(=O)Nc2ccc(N3CCN(C(=O)OC(C)(C)C)CC3)cc2)c2ccccc2c1=O	> 95.1 µM (inactive)
Cc1nn(Cc2ccc(Cl)c(Cl)c2)c(C)c1NC(=O)c1cc(-c2ccco2)on1	13.2 µM (inactive)
Cc1ccc2[nH]c3c(NCc4ccco4)ncnc3c2c1	30.9 µM (inactive)
CC1=C(C(=O)OCc2ccc3c(c2)OCO3)C(c2ccc(F)cc2)NC(=O)N1 (stereo not given)	2.3 µM
Cc1noc(/C=C/N(C)C)c1S(=O)(=O)N1CCc2ccccc21	> 95.1 µM (inactive)
C=CS(=O)(=O)c1ccc(Oc2ccc(S(=O)(=O)C=C)cc2)cc1	1.06 µM
O=C1C2CCCN2C(c2cccnc2)N1c1cccc(Cl)c1 (stereo not given)	> 95.1 µM (inactive)
CCC(C)c1ccc2oc(-c3ccc(NC(=O)c4ncn[nH]4)cc3)nc2c1 (stereo not given)	> 95.1 µM (inactive)
CSc1ccc(S(=O)(=O)Nc2ccc3c(c2)OCCO3)cc1	67.2 µM (inactive)
CCCc1ccc(Oc2cn[nH]c2-c2ccc(O)cc2O)cc1	> 10 µM (inactive)
CCOc1ccccc1OCCCCCc1c(C)n[nH]c1C	> 30 µM (inactive)
COc1ccc2c(c1)-c1nc(NC(=O)c3cccs3)sc1CC2	16.2 µM (inactive)
CCOc1ccc(-c2nc(-c3ccc(OC)cc3)no2)cc1OCC	> 95.1 µM (inactive)
Clc1ccc(OCc2nnc(SCc3nc4ccccc4[nH]3)n2Cc2ccco2)cc1	36.4 µM (inactive)
N#CCCS(=O)(=O)c1nnnn1-c1ccccc1	1.34 µM

Structure (SMILES)	EC50
CCCC(=O)N1CCN(c2ccc(NC(=O)c3cc4ccccc4o3)cc2Cl)CC1	10.8 µM (inactive)
CCOc1ccc(S(=O)(=O)N2CCN(c3ccc(C)cc3C)CC2)cc1	> 95.1 µM (inactive)
COc1ccc(/C(O)=C2/C(=O)C(=O)N(CC3CCCO3)C2c2cccc(OC)c2)cc1 (stereo not given)	> 95.1 µM (inactive)
CCc1oc2ccccc2c1C(=O)c1cc(Br)c(O)c(Br)c1	13.5 µM (inactive)
Brc1ccc2ncnc(Nc3ccc(N4CCOCC4)cc3)c2c1	46.6 µM (inactive)
O=S(=O)(CCSc1ccccn1)c1nc2ccccc2s1	4.71 µM
CCOc1ccc(-c2noc(-c3ccncc3)n2)cc1OCC	> 95.1 µM (inactive)
COC(=O)c1c(C)n(-c2ccc(OC)cc2)c2ccc(O)cc12	20.1 µM (inactive)
Clc1ccccc1C1=Nn2c(nnc2-c2ccncc2)SC1	13.9 µM (inactive)
Cc1cccc(OCCCCc2c(C)n[nH]c2C)c1	> 30 µM (inactive)
COc1ccc(CNc2cc(C)nc3ncnn23)c(OC)c1	> 95.1 µM (inactive)
COc1ccc(NC(=O)c2cc(-c3cccs3)on2)cc1OC	> 95.1 µM (inactive)
CCCc1ccc(Oc2cn[nH]c2-c2ccc(O)c(C)c2O)cc1	> 10 µM (inactive)
O=C(Nc1cccc(C(F)(F)F)c1)N1CCC(c2nc(-c3ccc(F)cc3)no2)CC1	14.4 µM (inactive)
CCN(CC)S(=O)(=O)c1cccc(S(=O)(=O)c2cccc(S(=O)(=O)N(CC)CC)c2)c1	> 95.1 µM (inactive)
CC1CCN(S(=O)(=O)c2ccc3c(c2)oc(=O)n3CC(=O)NCc2ccc3c(c2)OCO3)CC1	> 30 µM (inactive)
COc1ccc(-n2c(C)c(C(C)=O)c3cc(O)ccc32)cc1	> 95.1 µM (inactive)
CN(CC1CCCO1)S(=O)(=O)c1ccc(C(=O)Nc2nc(-c3ccccn3)cs2)cc1 (stereo not given)	> 30 µM (inactive)
CC(C)Cc1cc(C(=O)Nc2cc(Br)ccc2O)no1	> 10 µM (inactive)
O=C(C1CCCN1S(=O)(=O)c1cccc2cccnc12)N1CCN(c2ccccc2)CC1 (stereo not given)	> 95.1 µM (inactive)
Cc1ccc(-n2ncc3c(N4CCCC(C)C4)ncnc32)c(C)c1 (stereo not given)	36.1 µM (inactive)
COc1ccc2c(c1)CCc1c(C(=O)Nc3ccc(OC)c(OC)c3)noc1-2	> 95.1 µM (inactive)
Oc1c(C(c2ccco2)N2CCN(C(c3ccccc3)c3ccccc3)CC2)sc2ncnn12 (stereo not given)	39.5 µM (inactive)
O=C(c1ccc(Cl)s1)N1CCN(c2nc3ccccc3s2)CC1	> 95.1 µM (inactive)
Cc1cc(C(=O)CSc2nc3ccccc3c(=O)n2C)c(C)n1Cc1ccc2c(c1)OCO2	54.9 µM (inactive)

Structure (SMILES)	EC50
O=S(=O)(c1cccs1)N1CCN(CC(O)COc2cc(Cl)ccc2Cl)CC1 (stereo not given)	24.6 µM (inactive)
O=C(Nc1c(F)cc(F)cc1Br)c1cc(-c2ccc(O)cc2)on1	53.6 µM (inactive)
Fc1ccc2[nH]c3c(N4CCSCC4)ncnc3c2c1	11 µM (inactive)
CCn1c(NC(=O)c2cccc(Cn3cc(Cl)cn3)c2)nc2ccccc21	> 95.1 µM (inactive)
COc1ccc(CNC(=O)c2cc3c(C)nc4ccccc4c3o2)c(OC)c1	> 95.1 µM (inactive)
Cc1ccccc1-c1nnc(SCc2ccccc2F)o1	> 95.1 µM (inactive)
COc1ccccc1OCc1nc(C#N)c(N2CC(C)CC(C)C2)o1 (stereo not given)	> 95.1 µM (inactive)
O=C(C1CC1)N1CCc2cc(S(=O)(=O)NCC3COc4ccccc4O3)ccc21 (stereo not given)	> 30 µM (inactive)
CN(C)CC(C(=O)c1ccccc1)c1ccccc1 (stereo not given)	3.58 µM
CC(C)OCCCNc1ncnc2c1[nH]c1ccc(F)cc12	24.4 µM (inactive)
CCCn1c(NC(=O)c2cccc(S(=O)(=O)N3CCCC3)c2)nc2ccccc21	10.4 µM (inactive)
COc1ccc(-c2nc(-c3ccc(Br)o3)no2)cc1OC	> 95.1 µM (inactive)
CCCCNc1cc(C)nc(NCc2ccccc2)n1	12.8 µM (inactive)
CCOC(=O)c1ccc2c(c1)C(=O)N(C1CCCCC1)C2=O	> 95.1 µM (inactive)
CCN(C1CCCCC1)S(=O)(=O)c1ccc(S(=O)(=O)NCc2ccncc2)cc1	76.5 µM (inactive)
CCc1c(C)sc(NC(=O)c2cc(-c3ccco3)on2)c1C#N	> 95.1 µM (inactive)
CN1c2ccccc2C(C)(C)C12C=Cc1cc(O)ccc1O2 (stereo not given)	> 10 µM (inactive)
Cc1onc(-c2ccccc2Cl)c1C(=O)Oc1cc(N)n(S(=O)(=O)c2ccc(F)cc2)n1	9.2 µM
O=C(CSCC(=O)N1CCCCC1)Nc1nc(-c2cccs2)cs1	> 30 µM (inactive)
Cc1ccc2oc(-c3ccc(NC(=O)c4cccnc4)cc3)nc2c1	> 95.1 µM (inactive)
Cc1cc(/C=c2/sc3nc4ccccc4n3c2=O)c(C)n1-c1ccccn1	> 95.1 µM (inactive)
NC(=O)c1ccc(OCC(F)(F)C(F)(F)C(F)(F)C(F)(F)C(F)(F)C(F)F)cc1	> 95.1 µM (inactive)
OC1(c2cccc(C(F)(F)F)c2)CCN(c2ncnc3c2[nH]c2ccc(F)cc23)CC1	> 3 µM (inactive)
CCCc1ccc(OCc2nc(-c3ccc(NC(=O)c4ccco4)cc3)no2)cc1	> 95.1 µM (inactive)
COc1ccc(NC(=O)c2cnn3c(C(F)(F)F)cc(-c4ccco4)nc23)cc1OC	> 95.1 µM (inactive)

Structure (SMILES)	EC50
Cc1ccc2c(c1)N(CC(=O)Nc1ccc3c(c1)OCCO3)C(=O)CO2	> 95.1 µM (inactive)
CCOc1ccc(C(=O)Nc2c(C(N)=O)oc3ccccc23)cc1	> 95.1 µM (inactive)
COC(=O)c1cc(CSc2nnc(-c3ccccc3)c(-c3ccccc3)n2)oc1C	> 95.1 µM (inactive)
Cc1ccc2nc(C(F)(F)F)c(C#N)c(N)c2c1	6.47 µM
Cc1sc2ncnc(Sc3nnnn3-c3ccccc3)c2c1C	> 30 µM (inactive)
Cc1cc(C(=O)COC(=O)c2csc3c2CCCC3)c(C)n1C	> 95.1 µM (inactive)
Cc1cc(N2CCN(c3nc4ccccc4s3)CC2)n2ncnc2n1	> 95.1 µM (inactive)
CC(=O)N1CCCc2cc(S(=O)(=O)NCCC3=CCCCC3)ccc21	> 95.1 µM (inactive)
Cc1ccc2c(c1)[nH]c1c(N3CCN(Cc4ccccc4)CC3)ncnc12	7.72 µM
CCCc1cc2c(=O)c(-c3ccccn3)coc2cc1OC	> 95.1 µM (inactive)
CCN(CC)c1ccc(-n2c(C)c(C(C)=O)c(C(C)=O)c2C)cc1	> 95.1 µM (inactive)
CC(=O)Oc1ccc(N2C(=O)C3C(C2=O)C2(C)C=CC3(C)O2)cc1 (stereo not given)	3.23 µM
CC1CC(C)(C)Nc2ccc(OC(=O)c3ccco3)cc21 (stereo not given)	7.66 µM
Oc1ccc(-c2nnc(SCC3CCCCC3)o2)cc1	> 10 µM (inactive)
CCOc1ccc(C(=O)Nc2ccc(Cl)cn2)cc1Cl	> 95.1 µM (inactive)
Nc1nonc1C(=O)NCCNCc1cc(Br)ccc1OCc1ccccc1F	28.9 µM (inactive)
CC1Cc2ccccc2N1c1ncnc2nc[nH]c12 (stereo not given)	11.4 µM (inactive)
CC(C)(CC(=O)N1CCN(c2ccc(Cl)cc2)CC1)CC1=NS(=O)(=O)c2ccccc2N1	19.9 µM (inactive)
CS(=O)(=O)n1nc(OC(=O)c2cccc3ccccc23)cc1N	12 µM (inactive)
C=CCN1C(=Nc2cccnc2)SCC1(O)c1ccc(C)cc1 (stereo not given)	31.9 µM (inactive)
CC(C)c1ccc2oc(-c3ccc(N)cc3)nc2c1	> 30 µM (inactive)
COc1ccc(N2C(=O)CC(Sc3ncn[nH]3)C2=O)c(OC)c1 (stereo not given)	4.91 µM
COc1ccc(-n2c(C)cc(C(=O)COC(=O)Cn3cnc4ccccc43)c2C)cc1	> 30 µM (inactive)
CC(=O)c1c(C)[nH]c(C(=O)OCCCCN2C(=O)c3ccccc3C2=O)c1C	> 10 µM (inactive)
CCOc1ccc(-c2nc(CSCC(=O)N3CCN(c4cccc(OC)c4)CC3)c(C)o2)cc1	19.4 µM (inactive)
